Laboratory results from patent publication US20120095036A1, “NOVEL SUBSTITUTED INDAZOLE AND AZA-INDAZOLE DERIVATIVES AS GAMMA SECRETASE MODULATORS” (priority 2009, published 2012).

How the values were obtained:
Aβ42 [1] = assay: Method 2: Aβ42 Alphalisa on supernatant of SKNBE2 cells carrying APP 695 wild type; format: cell-based; conditions: SKNBE2 cells APP 695 wild type, overnight
Experimental: (§1) Screening was carried out using SKNBE2 cells carrying the APP 695—wild type, grown in Dulbecco's Modified Eagle's Medium/Nutrient mixture F-12 (DMEM/NUT-mix F-12) (HAM) provided by Invitrogen (cat no. 10371-029) containing 5% Serum/Fe supplemented with 1% non-essential amino acids, 1-glutamine 2 mM, Hepes 15 mM, penicillin 50 U/ml (units/ml) en streptomycin 50 μg/ml. Cells were grown to near confluency.
(§2) The screening was performed using a modification of the assay as described in Citron et al (1997) Nature Medicine 3: 67. Briefly, cells were plated in a 384-well plate at 10^4 cells/well in Ultraculture (Lonza, BE12-725F) supplemented with 1% glutamine (Invitrogen, 25030-024), 1% non-essential amino acid (NEAA), penicillin 50 U/ml en streptomycin 50 μg/ml in the presence of test compound at different test concentrations. The cell/compound mixture was incubated overnight at 37° C., 5% CO2, The next day the media were assayed by two sandwich immuno-assays, for Aβ42 and Aβtotal.
(§3) Aβtotal and Aβ42 concentrations were quantified in the cell supernatant using the Aphalisa technology (Perkin Elmer). Alphalisa is a sandwich assay using biotinylated antibody attached to streptavidin coated donorbeads and antibody conjugated to acceptor beads. In the presence of antigen, the beads come into close proximity. The excitation of the donor beads provokes the release of singlet oxygen molecules that trigger a cascade of energy transfer in the acceptor beads, resulting in light emission. To quantify the amount of Aβ42 in the cell supernatant, monoclonal antibody specific to the C-terminus of Aβ42 (JRF/cAβ42/26) was coupled to the receptor beads and biotinylated antibody specific to the N-terminus of AB (JRF/AβN/25) was used to react with the donor beads. To quantify the amount of Aβtotal in the cell supernatant, monoclonal antibody specific to the N-terminus of AB (JRF/AβN/25) was coupled to the receptor beads and biotinylated antibody specific to the mid region of Aβ (biotinylated 4G8) was used to react with the donor beads.
(§4) To obtain the values reported in Table 3b, the data were calculated as percentage of the maximum amount of amyloid Beta 42 measured in the absence of the test compound. The sigmoidal dose response curves were analyzed using non-linear regression analysis with percentage of the control plotted against the log concentration of the compound. A 4-parameter equation was used to determine the IC50.

Aβtotal [2] = assay: Method 2: Aβtotal Alphalisa on supernatant of SKNBE2 cells carrying APP 695 wild type; format: cell-based; conditions: SKNBE2 cells APP 695 wild type, overnight
Experimental: as §1, §2, §3, §4

Aβ42 [3] = assay: Method 1: Aβ42 sandwich ELISA on media of SKNBE2 cells carrying APP 695 wild type (γ-secretase-modulating activity); format: cell-based; conditions: SKNBE2 cells APP 695 wild type, 18 hours
Experimental: as §1, with “Gibco” for “Invitrogen”, “31330-38)” for “10371-029)”, “acids.” for “acids, 1-glutamine 2 mM, Hepes 15 mM, penicillin 50 U/ml (units/ml) en streptomycin 50 μg/ml.”
(§5) The screening was performed using the assay as described in Citron et al (1997) Nature Medicine 3: 67. Briefly, cells were plated in a 96-well plate at about 10^5 cells/ml one day prior to addition of compounds. Compounds were added to the cells in Ultraculture (Lonza, BE12-725F) supplemented with 1% glutamine (Invitrogen, 25030-024) for 18 hours. The media were assayed by two sandwich ELISAs, for Aβ42 and Aβtotal. Toxicity of the compounds was assayed by WST-1 cell proliferation reagent (Roche, 1 644 807) according to the manufacturer's protocol.
To quantify the amount of Aβ42 in the cell supernatant, commercially available Enzyme-Linked-Immunosorbent-Assay (ELISA) kits were used (Innotest® β-Amyloid(1-42), Innogenetics N.V., Ghent, Belgium). The Aβ42 ELISA was performed essentially according to the manufacturer's protocol. Briefly, the standards (dilutions of synthetic A131-42) were prepared in polypropylene Eppendorf with final concentrations of 8000 down to […] (½ dilution step). Samples, standards and blanks (100 μl) were added to the anti-Aβ42-coated plate supplied with the kit (the capture antibody selectively recognizes the C-terminal end of the antigen). The plate was allowed to incubate 3 h at 25° C. in order to allow formation of the antibody-amyloid complex. Following this incubation and subsequent wash steps a selective anti-A13-antibody conjugate (biotinylated 3D6) was added and incubated for a minimum of 1 hour in order to allow formation of the antibody-Amyloid-antibody-complex. After incubation and appropriate wash steps, a Streptavidine-Peroxidase-Conjugate was added, followed 30 minutes later by an addition of 3,3′,5,5′-tetramethylbenzidine (TMB)/peroxide mixture, resulting in the conversion of the substrate into a coloured product. This reaction was stopped by the addition of sulfuric acid (0.9 N) and the colour intensity was measured by means of photometry with an ELISA-reader with a 450 nm filter.
(§6) To obtain the values reported in Table 3a, the sigmoidal dose response curves were analysed by computerised curve-fitting, with percent of inhibition plotted against compound concentration. A 4-parameter equation (model 205) in XLfit was used to determine the IC50. The top and the bottom of the curve were fixed to 100 and 0, respectively, and the hill slope was fixed to 1. The IC50 represents the concentration of a compound that is required for inhibiting a biological effect by 50% (Here, it is the concentration where Aβ peptide level is reduced by 50%).

Aβtotal [4] = assay: Method 1: Aβtotal sandwich ELISA on media of SKNBE2 cells carrying APP 695 wild type; format: cell-based; conditions: SKNBE2 cells APP 695 wild type, 18 hours
Experimental: as §1, with “Gibco” for “Invitrogen”, “31330-38)” for “10371-029)”, “acids.” for “acids, 1-glutamine 2 mM, Hepes 15 mM, penicillin 50 U/ml (units/ml) en streptomycin 50 μg/ml.”
as §5
To quantify the amount of Aβtotal in the cell supernatant, samples and standards were added to a 6E10-coated plate. The plate was allowed to incubate overnight at 4° C. in order to allow formation of the antibody-amyloid complex. Following this incubation and subsequent wash steps a selective anti-AB-antibody conjugate (biotinylated 4G8) was added and incubated for a minimum of 1 hour in order to allow formation of the antibody-Amyloid-antibody-complex. After incubation and appropriate wash steps, a Streptavidine-Peroxidase-Conjugate was added, followed 30 minutes later by an addition of Quanta Blu fluorogenic peroxidase substrate according to the manufacturer's instructions (Pierce Corp., Rockford, Il).
as §6

Row | Compound | IC50 (Aβ42 [1]; Homo sapiens) [nM] | IC50 (Aβtotal [2]; Homo sapiens) [nM] | melting point [°C] | IC50 (Aβ42 [3]; Homo sapiens) [nM] | IC50 (Aβtotal [4]; Homo sapiens) [nM] | IC50 (Aβ42 [3]) [nM] | IC50 (Aβtotal [4]) [nM] | IC50 (Aβ42 [1]) [nM] | IC50 (Aβtotal [2]) [nM]
1 | COc1cc(Nc2cccc3cn(CC(F)(F)F)nc23)ccc1-n1cnc(C)n1 [Compound 18, N-[3-methoxy-4-(3-methyl-1H-1,2,4-triazol-1-yl)phenyl]-2-(2,2,2-trifluoroethyl)-2H-indazol-7-amine] | 331 | > 10000 |  | 479 | > 3000 |  |  |  | 
2 | COc1cccc(-n2cc3cccc(Nc4ccc(-n5cnc(C)n5)c(OC)c4)c3n2)c1 [Compound 19, N-[3-methoxy-4-(3-methyl-1H-1,2,4-triazol-1-yl)phenyl]-2-(3-methoxyphenyl)-2H-indazol-7-amine] | 123 | 3020 |  | 126 | > 3000 |  |  |  | 
3 | COc1cc(Nc2cccc3cn(C)nc23)ccc1-n1cnc(C)c1 [Compound 9, N-[3-methoxy-4-(4-methyl-1H-imidazol-1-yl)phenyl]-2-methyl-2H-indazol-7-amine] | < 3000 | > 3000 |  | 1470 | > 10000 |  |  |  | 
4 | COc1cc(Nc2cccc3cn(CC4CC4)nc23)ccc1-n1cnc(C)c1 [Compound 13, 2-(cyclopropylmethyl)-N-[3-methoxy-4-(4-methyl-1H-imidazol-1-yl)phenyl]-2H-indazol-7-amine .2HCl] |  |  |  |  |  | 283 | > 3000 | 79 | > 10000
5 | COc1cccc(-n2nc3c(Nc4ccc(-c5ocnc5C)nc4)cccc3c2C)c1 [Compound 4, 2-(3-methoxyphenyl)-3-methyl-N-[6-(4-methyl-5-oxazolyl)-3-pyridinyl]-2H-indazol-7-amine] | 22 | 4790 |  | 55 | > 3000 |  |  |  | 
6 | Cc1ncc(-c2ccc(Nc3cccc4cn(C)nc34)cc2)o1 [Compound 24, 2-methyl-N-[4-(2-methyl-5-oxazolyl)phenyl]-2H-indazol-7-amine] | > 3000 | > 3000 | 168.7 |  |  |  |  |  | 
7 | COc1cc(Nc2cccc3c(C)n(-c4ccc(F)cc4F)nc23)ccc1-n1cnc(C)c1 [Compound 16, 2-(2,4-difluorophenyl)-N-[3-methoxy-4-(4-methyl-1H-imidazol-1-yl)phenyl]-3-methyl-2H-indazol-7-amine] | 54 | 8510 |  | 190 | > 3000 |  |  |  | 
8 | CCCCn1cc2cccc(Nc3ccc(-n4cnc(C)c4)c(OC)c3)c2n1 [Compound 3, 2-butyl-N-[3-methoxy-4-(4-methyl-1H-imidazol-1-yl)phenyl]-2H-indazol-7-amine .2HCl] | < 3000 | > 3000 |  | 113 | > 3000 |  |  |  | 
9 | CCCCn1cc2cc(C#N)cc(Nc3ccc(-n4cnc(C)c4)c(OC)c3)c2n1 [Compound 11, 2-butyl-7-[[3-methoxy-4-(4-methyl-1H-imidazol-1-yl)phenyl]amino]-2H-indazole-5-carbonitrile .2HCl] |  |  |  |  |  | 77 | > 3000 | < 3000 | > 3000
10 | CCOc1cc(C)c(-n2nc3c(Nc4ccc(-n5cnc(C)n5)c(OC)c4)cccc3c2C)cc1C(C)C [Compound 20, 2-[4-ethoxy-2-methyl-5-(1-methylethyl)phenyl]-N-[3-methoxy-4-(3-methyl-1H-1,2,4-triazol-1-yl)phenyl]-3-methyl-2H-indazol-7-amine] | 59 | 6030 |  | 67 | > 3000 |  |  |  | 

Continued, values first:

Row | IC50 (Aβ42 [1]; Homo sapiens) [nM] | IC50 (Aβtotal [2]; Homo sapiens) [nM] | melting point [°C] | IC50 (Aβ42 [3]; Homo sapiens) [nM] | IC50 (Aβtotal [4]; Homo sapiens) [nM] | IC50 (Aβ42 [3]) [nM] | IC50 (Aβtotal [4]) [nM] | IC50 (Aβ42 [1]) [nM] | IC50 (Aβtotal [2]) [nM] | Compound
11 | 166 | > 10000 | 139.9 |  |  |  |  |  |  | Cc1ncc(-c2ccc(Nc3cccc4c(C)n(-c5ccc(F)cc5F)nc34)cc2)o1 [Compound 33, 2-(2,4-difluorophenyl)-3-methyl-N-[4-(2-methyl-5-oxazolyl)phenyl]-2H-indazol-7-amine]
12 | 339 | > 10000 | 144.9 |  |  |  |  |  |  | Cc1cn(-c2ccc(Nc3cccc4cn(CC(F)(F)F)nc34)cc2F)cn1 [Compound 52, N-[3-fluoro-4-(4-methyl-1H-imidazol-1-yl)phenyl]-2-(2,2,2-trifluoroethyl)-2H-indazol-7-amine]
13 | > 3000 | > 3000 | 103.9 |  |  |  |  |  |  | CC(C)c1ncc(-c2ccc(Nc3cccc4cn(CC(F)(F)F)nc34)cc2)o1 [Compound 48, N-[4-[2-(1-methylethyl)-5-oxazolyl]phenyl]-2-(2,2,2-trifluoroethyl)-2H-indazol-7-amine]
14 | 107 | 1660 | 172.5 |  |  |  |  |  |  | COc1nc(Nc2cc(C(C)C)nc3cn(CC(F)(F)F)nc23)ccc1-n1cnc(C)c1 [Compound 57, N-[6-methoxy-5-(4-methyl-1H-imidazol-1-yl)-2-pyridinyl]-5-(1-methylethyl)-2-(2,2,2-trifluoroethyl)-2H-pyrazolo[4,3-b]pyridin-7-amine]
15 | > 3000 | > 3000 | 213.8 |  |  |  |  |  |  | COc1cc(Nc2nc(C)cc3cn(CC(F)(F)F)nc23)ccc1-c1cnc(C)o1 [Compound 41, N-[3-methoxy-4-(2-methyl-5-oxazolyl)phenyl]-5-methyl-2-(2,2,2-trifluoroethyl)-2H-pyrazolo[3,4-c]pyridin-7-amine]
16 | > 3000 |  | 224.8 |  |  |  |  |  |  | Cc1ncc(-c2ccc(Nc3cccc4cn(C5CCOCC5)nc34)cc2)o1 [Compound 28, N-[4-(2-methyl-5-oxazolyl)phenyl]-2-(tetrahydro-2H-pyran-4-yl)-2H-indazol-7-amine]
17 |  |  |  |  |  | 1740 | > 150000 | 1260 | 49000 | Cc1ncc(-c2ccc(Nc3cccc4cn(CC5CC5)nc34)cc2)o1 [Compound 25, 2-(cyclopropylmethyl)-N-[4-(2-methyl-5-oxazolyl)phenyl]-2H-indazol-7-amine .2HCl]
18 | 234 | 5250 | 211.5 |  |  |  |  |  |  | COc1cc(Nc2cc(C)nc3cn(CC(F)(F)F)nc23)ccc1-c1cnc(C)o1 [Compound 51, N-[3-methoxy-4-(2-methyl-5-oxazolyl)phenyl]-5-methyl-2-(2,2,2-trifluoroethyl)-2H-pyrazolo[4,3-b]pyridin-7-amine]
